In paper PMC7367873, “Dissecting the sequence determinants for dephosphorylation by the catalytic subunits of phosphatases PP1 and PP2A” (Nature Communications, 2020):

System: GFP-14-3-3β
Assay: GFP-14-3-3β co-IP with LC-MS/MS, untreated GFP-14-3-3β versus GFP control (14-3-3 interactome)
Format: binding, human
Settings: log2 difference; pairwise comparison untreated vs GFP, label-free quantification, 3 replicates each

Substance: PP1c: recombinant catalytic subunit of PP1
- Difference (log2), untreated vs GFP: 1.715
